The test system of series [1] is RAW264.7. The experiment in a line: Anti-inflammatory activity in mouse RAW264.7 cells assessed as inhibition of LPS-induced NO production incubated for 24 hrs. The series is classed as functional, cell-based. Particulars: for IC50: RAW264.7, 24 h; for inhibition: dose 1.25-20 µM.
The subject of series [2] is RAW264.7. The experiment in a line: Anti-inflammatory activity in mouse RAW264.7 cells assessed as inhibition of LPS-induced NO production at 10 uM incubated for 24 hrs relative to control. It counts as functional.
The subject of series [3] is RAW264.7. The series is described as follows: Cytotoxicity against mouse RAW264.7 cells assessed as cell viability at 20 uM incubated for 24 hrs by CCK8 assay. The series is classed as toxicity, cell-based. Particulars: raw264.7, 24 h.

For `C[C@H](CCC(=O)N1CCN(C(=O)/C=C/c2ccc(Cl)cc2)CC1)[C@H]1CC[C@H]2[C@@H]3[C@@H](O)C[C@@H]4C[C@H](O)CC[C@]4(C)[C@H]3CC[C@]12C`, in the series on RAW264.7 [1], the IC50 was 8.23 µM and the inhibition entry was “Dose-Dependent Effect”. In the series with RAW264.7 [2], the inhibition at 10 µM was over 50%. Further, in the series on RAW264.7 [3], the Activity entry was “Non-Toxic”.
For the compound `COc1cc(/C=C/C(=O)N2CCN(C(=O)CC[C@@H](C)[C@H]3CC[C@H]4[C@@H]5[C@@H](O)C[C@@H]6C[C@H](O)CC[C@]6(C)[C@H]5CC[C@]34C)CC2)cc(OC)c1OC`, in the series on RAW264.7 [1], the half-inhibitory concentration (IC50) was 9.49 µM and the inhibition result was “Dose-Dependent Effect”. Also, the inhibition at 10 µM in the series on RAW264.7 [2] was over 50%. Moreover, the Activity result in the series on RAW264.7 [3] was “Non-Toxic”.

Values taken from ChEMBL document CHEMBL5625254, “Design, synthesis and evaluation of ursodeoxycholic acid-cinnamic acid hybrids as potential anti-inflammatory agents by inhibiting Akt/NF-κB and MAPK signaling pathways” (Eur J Med Chem, 2023).
